The record followed here is US20250051347A1, “BIFUNCTIONAL CHIMERIC HETEROCYCLIC COMPOUND AND USE THEREOF AS ANDROGEN RECEPTOR DEGRADER” (Hinova Pharmaceuticals, Inc., priority 2021, published 2025).

Data set [1] is described as follows: Pharmacokinetics in mice (plasma exposure after oral administration). The conditions noted are these: mouse, ICR mice, oral (i.g.) 3 mg/kg, read-out: After oral administration of 3 mg/kg, mouse plasma exposure AUCinf. The class given is in vivo. Here is the method: • LC-20AD high performance liquid chromatography (SHIMADZU, Japan) • API4000 triple quadrupole mass spectrometer (Applied Biosystem, USA) • Phenix Winnolin Pharmacokinetic software (Version 6.3, Certara, USA) • High speed freezing centrifuge (Thermo Fisher Scientific) • Analytical balance (Sartorius, SECURA225D-ICN) • ICR mice (Chengdu Dossy Experimental Animals CO., LTD.)
A suitable amount of drug was accurately weighed, and then the medium (5% DMSO, 15% HS-15, 80% DSW) was added to prepare the solution at a concentration of 0.1 mg/ml (i.v.) and 0.3 mg/ml (i.g.).
18 healthy adult ICR mice were divided into two groups (9 mice for i.v. group; 9 mice for i.g. group), and administered by tail vein or by gavage after fasting overnight (free drinking water); using the satellite blood collection method, 3 animals were collected at each time point, and then 0.1 ml of blood obtained at different time points was anticoagulated with EDTA-K2, centrifuged at 4° C. for 5 min to separate the plasma, and stored at −80° C. for detection. The sampling time points after i.v. administration were 5 min, 15 min, 0.5 h, 1 h, 2 h, 4 h, 8 h, 12 h, and 24 h; while the sampling time points for i.g. group were before administration (0 h) as well as 0.5 h, 1 h, 2 h, 4 h, 6 h, 8 h, 12 h, and 24 h after administration. Then, the drug concentration in plasma was determined by LC/MS/MS.

In data set [2] the target is T1, androgen receptor (AR) splicing variant AR-v7 (Homo sapiens, UniProt P10275).
T1 construct: The degradation activity of compounds on AR-v7 in 22RV1 cells; host or cells: 22RV1 cells
T1 sequence (P10275 1-644 isoform P10275-3): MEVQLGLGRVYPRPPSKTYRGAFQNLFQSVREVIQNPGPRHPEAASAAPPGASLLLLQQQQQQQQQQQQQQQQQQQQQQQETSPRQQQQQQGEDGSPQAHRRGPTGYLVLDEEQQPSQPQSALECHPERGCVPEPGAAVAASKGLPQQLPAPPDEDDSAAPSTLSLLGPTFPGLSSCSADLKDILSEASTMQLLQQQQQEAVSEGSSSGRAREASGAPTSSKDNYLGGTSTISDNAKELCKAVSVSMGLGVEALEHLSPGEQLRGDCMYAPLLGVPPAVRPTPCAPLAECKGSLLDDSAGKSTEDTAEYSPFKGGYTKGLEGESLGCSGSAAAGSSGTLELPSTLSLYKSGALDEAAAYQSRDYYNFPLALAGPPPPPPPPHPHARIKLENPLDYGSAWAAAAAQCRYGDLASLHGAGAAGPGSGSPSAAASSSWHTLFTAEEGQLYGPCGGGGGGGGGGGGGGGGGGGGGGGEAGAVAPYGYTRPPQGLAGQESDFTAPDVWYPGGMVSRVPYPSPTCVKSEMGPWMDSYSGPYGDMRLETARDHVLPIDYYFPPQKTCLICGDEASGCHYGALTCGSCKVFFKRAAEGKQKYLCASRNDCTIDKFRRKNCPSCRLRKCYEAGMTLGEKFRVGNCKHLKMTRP
As to the kind of experiment: Degradation activity on androgen receptor splicing variant AR-v7 in 22RV1 cells (ELISA). The following applies: AR-v7 degradation in 22RV1 cells, 48 h, class symbols. The class given is cell-based. (In an ELISA, binding on a coated surface is turned into a signal by an enzyme label.)

Setting [3] is: Homo sapiens, 22Rv1, 144 h, read-out: 22RV1 IC50 (nM), 22RV1 cells, 6 days culture, CCK-8, OD 450 nm.

Where two headings read alike, the source gives them in different places.

A word on the DC50: it is the concentration at which degradation of the target reaches its halfway point. Higher therefore signals a less potent degrader. One may read the IC50 as the midpoint of a concentration-inhibition curve. As to `CC(C)(c1ccc(Oc2cnc(C#N)nc2)cc1)c1ccc(O[C@H]2C[C@H](Nc3ccc4c(c3)C(=O)N(C3CCC(=O)NC3=O)C4=O)C2)cc1` (stereo partly drawn) [Example 97, 5-(4-(2-(4-((1r,3r)-3-((2-(2,6-dioxopiperidin-3-yl)-1,3-dioxoisoindolin-5-yl)amino)cyclobutyloxy)phenyl)propan-2-yl)phenoxy)pyrimidin-2-carbonitrile], the AUC(0-inf) in data set [1] is 5000 to 30000 ng·h/mL. This molecule came in with a DC50 in data set [2] of under 10 nM. Further, in the data set with 22RV1 cells (setting [3]), the IC50 came to 15 nM.
On the same counts, the results for `CN(C)[C@@H]1CCN(c2nccc(COc3ccc(C(C)(C)c4ccc(O[C@H]5C[C@@H](Nc6ccc7c(c6)C(=O)N(C6CCC(=O)NC6=O)C7=O)C5)cc4)cc3)n2)C1` (stereo partly drawn) [Example 456] are 5000 to 30000 ng·h/mL, under 10 nM and 12 nM.
On to `C=CC(c1ccc(OCc2ccnc(N3CC4(COC4)C3)n2)cc1)c1ccc(O[C@H]2C[C@H](Nc3ccc4c(c3)C(=O)N(C3CCC(=O)NC3=O)C4=O)C2)cc1` (stereo partly drawn) [Example 367], for which the AUC(0-inf) in data set [1] is 1000 to 5000 ng·h/mL. The molecule also returned a DC50 in data set [2] of under 10 nM. Moreover, in the data set on 22RV1 cells (setting [3]), the IC50 is 8 nM.
As for `CC(O)c1ncc(Oc2ccc(C3(c4ccc(O[C@H]5C[C@H](Nc6ccc7c(c6)C(=O)N(C6CCC(=O)NC6=O)C7=O)C5)cc4)CCCCC3)cc2)cn1` (stereo partly drawn) [Example 528], the AUC(0-inf) in data set [1] lay in the range of 5000 to 30000 ng·h/mL. In data set [2], this molecule had a 50% degradation concentration (DC50) of under 10 nM. Further, in the data set on 22RV1 cells (setting [3]), the IC50 was determined as 2 nM.
On the same counts, the results for `O=C1CCC(N2C(=O)c3ccc(N[C@H]4C[C@@H](Oc5ccc(C6(c7ccc(OCc8ccnc(N9CC%10(COC%10)C9)n8)cc7)CCCC6)cc5)C4)cc3C2=O)C(=O)N1` (stereo partly drawn) [Example 361, 5-(((1s,3s)-3-(4-(1-(4-((2-(2-oxa-6-azaspiro[3.3]heptane-6-yl)pyrimidin-4-yl)methoxy)phenyl)cyclopentyl)phenoxy)cyclobutyl)amino)-2-(2,6-dioxopiperidin-3-yl)isoindolin-1,3-dione] are 1000 to 5000 ng·h/mL, under 10 nM and 8 nM.
As for `CC(C)(c1ccc(Oc2ccc(C#N)nn2)cc1)c1ccc(O[C@H]2C[C@H](Nc3ccc4c(c3)C(=O)N(C3CCC(=O)NC3=O)C4=O)C2)cc1` (stereo partly drawn) [Example 98, 6-(4-(2-(4-((1r,3r)-3-((2-(2,6-dioxopiperidin-3-yl)-1,3-dioxoisoindolin-5-yl)amino)cyclobutyloxy)phenyl)propan-2-yl)phenoxy) pyridazine-3-carbonitrile], the AUC(0-inf) in data set [1] is 100 to 1000 ng·h/mL. In addition, the DC50 in data set [2] was under 10 nM. In addition, in the data set with 22RV1 cells (setting [3]), the IC50 was 4 nM.
On the same counts, the results for `CC(C)(c1ccc(OCc2ccnc(-n3nccn3)n2)cc1)c1ccc(O[C@H]2C[C@@H](Nc3ccc4c(c3)C(=O)N(C3CCC(=O)NC3=O)C4=O)C2)cc1` (stereo partly drawn) [Example 446, 5-(((1s,3s)-3-(4-(2-(4-((2-(2H-1,2,3-triazol-2-yl)pyrimidin-4-yl)methoxy)phenyl)propan-2-yl)phenoxy)cyclobutyl)amino)-2-(2,6-dioxopiperidin-3-yl)isoindolin-1,3-dione] are 5000 to 30000 ng·h/mL, 11 to 100 nM and 9 nM.
On the same counts, the results for `CC(=O)c1nccc(COc2ccc(C(C)(C)c3ccc(O[C@H]4C[C@H](Nc5ccc6c(c5)C(=O)N(C5CCC(=O)NC5=O)C6=O)C4)cc3)cc2)n1` (stereo partly drawn) [Example 110, 5-(((trans)-3-(4-(2-(4-((2-acetylpyrimidin-4-yl)methoxy)phenyl)propan-2-yl)phenoxy)cyclobutyl)amino)-2-(2,6-dioxopiperidin-3-yl)isoindolin-1,3-dione] are 5000 to 30000 ng·h/mL, under 10 nM and 3 nM.
For `CC(C)(c1ccc(Oc2cnc(N3CC4(COC4)C3)nc2)cc1)c1ccc(O[C@H]2C[C@H](Nc3ccc4c(c3)C(=O)N(C3CCC(=O)NC3=O)C4=O)C2)cc1` (stereo partly drawn) [Example 248], the AUC(0-inf) in data set [1] fell in the range of 1000 to 5000 ng·h/mL. Moreover, the DC50 in data set [2] was under 10 nM. Moreover, the IC50 with 22RV1 cells (setting [3]) was found to be 23 nM.
On the same counts, the results for `C=CC(c1ccc(Oc2cnc(-c3nnc(C)o3)nc2)cc1)c1ccc(O[C@H]2C[C@H](Nc3ccc4c(c3)C(=O)N(C3CCC(=O)NC3=O)C4=O)C2)cc1` (stereo partly drawn) [Example 373, 2-(2,6-dioxopiperidin-3-yl)-5-(((1r,3r)-3-(4-(1-(4-((2-(5-methyl-1,3,4-oxadiazol-2-yl)pyrimidin-5-yl)oxy)phenyl)allyl)phenoxy)cyclobutyl)amino)isoindolin-1,3-dione] are 5000 to 30000 ng·h/mL, under 10 nM and 13 nM.
Take `CC1(O)CN(c2nccc(COc3ccc(C(C)(C)c4ccc(O[C@H]5C[C@@H](Nc6ccc7c(c6)C(=O)N(C6CCC(=O)NC6=O)C7=O)C5)cc4)cc3)n2)C1` (stereo partly drawn) [Example 455]: in data set [1], the AUC(0-inf) was 1000 to 5000 ng·h/mL. For the same molecule, the DC50 in data set [2] was under 10 nM. Further, the IC50 in the data set with 22RV1 cells (setting [3]) was 5 nM.
On the same counts, the results for `CC(C)(c1ccc(OCc2cnc(N3CC4(COC4)C3)nc2)cc1)c1ccc(O[C@H]2C[C@@H](Nc3ccc4c(c3)C(=O)N(C3CCC(=O)NC3=O)C4=O)C2)cc1` (stereo partly drawn) [Example 193] are 1000 to 5000 ng·h/mL, 11 to 100 nM and 36 nM.
On the same counts, the results for `O=C1CCC(N2C(=O)c3ccc(N[C@H]4C[C@H](Oc5ccc(S(=O)(=O)c6ccc(OCc7ccnc(N8CC9(COC9)C8)n7)cc6)cc5)C4)cc3C2=O)C(=O)N1` (stereo partly drawn) [Example 362, 5-(((1r,3r)-3-(4-((4-((2-(2-oxa-6-azaspiro[3.3]heptane-6-yl)pyrimidin-4-yl)methoxy)phenyl)sulfonyl)phenoxy)cyclobutyl)amino)-2-(2,6-dioxopiperidin-3-yl)isoindolin-1,3-dione] are 100 to 1000 ng·h/mL, under 10 nM and 20 nM.
For `CC1(N)CN(c2nccc(COc3ccc(C(C)(C)c4ccc(O[C@H]5C[C@H](Nc6ccc7c(c6)C(=O)N(C6CCC(=O)NC6=O)C7=O)C5)cc4)cc3)n2)C1` (stereo partly drawn) [Example 275], the AUC(0-inf) in data set [1] fell in the range of 1000 to 5000 ng·h/mL. In data set [2], this molecule returned a DC50 of under 10 nM. For the same molecule, the IC50 with 22RV1 cells (setting [3]) was 4 nM.
In the case of `Cc1nc(-c2ccc(Oc3ccc(C4(c5ccc(O[C@H]6C[C@H](Nc7ccc8c(c7)C(=O)N(C7CCC(=O)NC7=O)C8=O)C6)cc5)CCCC4)cc3)nn2)no1` (stereo partly drawn) [Example 338], the AUC(0-inf) in data set [1] was in the range of 1000 to 5000 ng·h/mL. The molecule also displayed a DC50 in data set [2] of under 10 nM. The IC50 in the data set with 22RV1 cells (setting [3]) came out at 2 nM.
`Cc1noc(-c2nccc(COc3ccc(C(C)(C)c4ccc(O[C@H]5C[C@@H](Nc6ccc7c(c6)C(=O)N(C6CCC(=O)NC6=O)C7=O)C5)cc4)cc3)n2)n1` (stereo partly drawn) [Example 251]: the AUC(0-inf) in data set [1] lay in the range of 1000 to 5000 ng·h/mL. This molecule also gave a DC50 in data set [2] of under 10 nM. Besides, in the data set with 22RV1 cells (setting [3]), the 50% inhibitory concentration (IC50) came to 6 nM.
Take `Cc1nc(-c2ncc(Oc3ccc(C(C)c4ccc(O[C@H]5C[C@H](Nc6ccc7c(c6)C(=O)N(C6CCC(=O)NC6=O)C7=O)C5)cc4)cc3)cn2)no1` (stereo partly drawn) [Example 99]: in data set [1], the AUC(0-inf) lay within 5000 to 30000 ng·h/mL. This molecule came in with a DC50 in data set [2] of under 10 nM. Further, the IC50 with 22RV1 cells (read-out: 22RV1 IC50, 22RV1 cells, 6 days culture, CCK-8, OD 450 nm) is 17 nM.
As to `O=C1CCC(N2C(=O)c3ccc(N[C@H]4C[C@H](Oc5ccc(C6(c7ccc(OCc8ccnc(N9CC%10(COC%10)C9)n8)cc7)CCC6)cc5)C4)cc3C2=O)C(=O)N1` (stereo partly drawn) [Example 358, 5-(((1r,3r)-3-(4-(1-(4-((2-(2-oxa-6-azaspiro[3.3]heptane-6-yl)pyrimidin-4-yl)methoxy)phenyl)cyclobutyl)phenoxy)cyclobutyl)amino)-2-(2,6-dioxopiperidin-3-yl)isoindolin-1,3-dione], in data set [1], the AUC(0-inf) was 1000 to 5000 ng·h/mL. Moreover, in data set [2], the DC50 was under 10 nM. Besides, the IC50 with 22RV1 cells (setting [3]) is 9 nM.
On the same counts, the results for `CC(C)(c1ccc(Oc2ccc(-n3nccn3)nc2)cc1)c1ccc(O[C@H]2C[C@H](Nc3ccc4c(c3)CN(C3CCC(=O)NC3=O)C4=O)C2)cc1` (stereo partly drawn) [Example 94] are 1000 to 5000 ng·h/mL, under 10 nM and 4 nM.
